The test addresses T1, RORγt (hRORC LBD) (Homo sapiens, UniProt P51449).
T1 construct: expressed in transfected cells; host or cells: HEK 293 (transient cotransfection with pGL4.3 luc2P/GAL4UAS/Hygro reporter)
T1 sequence (P51449 269-508 limits assumed): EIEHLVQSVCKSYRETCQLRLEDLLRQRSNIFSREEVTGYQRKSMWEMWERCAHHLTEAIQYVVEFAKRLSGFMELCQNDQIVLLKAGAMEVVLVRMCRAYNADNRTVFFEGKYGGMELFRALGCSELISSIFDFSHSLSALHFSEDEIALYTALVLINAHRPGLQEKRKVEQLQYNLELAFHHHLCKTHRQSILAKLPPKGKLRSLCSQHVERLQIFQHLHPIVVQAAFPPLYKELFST
Briefly: RGA Assay: nuclear receptor transactivation assay, RORγt transactivation of a luciferase reporter. Type of test: cell-based. To be noted: transiently transfected HEK 293 cells, Gal4DBD hRORC LBD, 20-24 hours incubation. As to the method:
A nuclear receptor transactivation assay was performed to quantitate the ability of test compounds to inhibit RORγt transactivation of a luciferase reporter. A similar assay is described in: Khan et al., Bioorganic & Medicinal Chemistry Letters 23 (2013), 532-536. The system uses transiently transfected HEK 293 cells cotransfected with two plasmids (pGL4.3, luc2P/GAL4UAS/Hygro, and pBIND, Gal4DBD hRORC LBD1-3). The positive control is co-transiently transfected with both plasmids, and the negative control contains the pGL4.3 promoter sequence. Assays were assembled in 384 well plates where transiently transfected cells and test compound at varying concentrations were incubated for 20-24 hours. The next day, assays plates are taken out and equilibrated at RT for 20-30 minutes. Bright-Glo™ Luciferase Assay System is used to detect Luciferase production. After addition of Bright GLO detection reagent, the plates were incubated at RT for 20 minutes. The plates were read on an Envision plate reader to measure luminescence signal. The RLU signal is converted to POC relative to control and blank wells.
Compound Dilution Buffer:
Bright Glo Luciferase Assay System: Promega #E2620
Thaw lysis buffer provided in kit, add 100 mL lysis buffer to substrate powder.

The term IC50 denotes the concentration at which inhibition is half-maximal. Read a low IC50 as higher potency. In turn, `COc1ccc(-c2ccc3c(c2)C2(CCCC2)CN3C(=O)NCc2ccc(S(C)(=O)=O)cc2OC)c(C(F)(F)F)c1` [Example 105] came in with an IC50 of 430 nM.

`CNS(=O)(=O)c1ccc(CNC(=O)N2CC3(CCCC3)c3cc(-c4c(F)cccc4C#N)ccc32)cc1` [Example 34] had an IC50 of 790 nM.

`CCOc1ccc(-c2ccc3c(c2)C2(CCCC2)CN3C(=O)NCc2ccc(S(=O)(=O)NC)cc2)c(C)c1` [Example 12] came in with an IC50 of 780 nM.

As for `CNS(=O)(=O)c1ccc(CNC(=O)N2CC3(CCCC3)c3cc(-c4c(C)cccc4C)ccc32)cc1` [Example 17], the IC50 came out at 1000 nM.

The compound `CCCC1(C)CN(C(=O)NCc2ccc(S(=O)(=O)NC)cc2)c2ccc(-c3ccc(OC)cc3C(F)(F)F)cc21` (stereo not shown) [Example 64] came in with an IC50 of 470 nM.

As for `CCC(C)c1ncncc1-c1ccc2c(c1)C1(CCCC1)CN2C(=O)NCc1ccc(S(C)(=O)=O)cc1` (stereo not shown) [Example 107], half-maximal inhibition (IC50) was put at 1500 nM.

As for `CNS(=O)(=O)c1ccc(CNC(=O)N2CC3(CCCC3)c3cc(-c4cccc(C)c4C)ccc32)cc1` [Example 22], the IC50 stood at 1200 nM.

`CCOC(=O)c1ccc(F)cc1-c1ccc2c(c1)C1(CCCC1)CN2C(=O)NCc1ccc(S(=O)(=O)NC)cc1` [Example 80] showed an IC50 of 970 nM.

In turn, `CCS(=O)(=O)c1ccc(CNC(=O)N2CC3(CCCC3)c3cc(-c4ccc(OC)cc4C(F)(F)F)ccc32)cc1` [Example 66] gave an IC50 of 410 nM.

The compound `CCS(=O)(=O)c1ccc(CNC(=O)N2CC3(CCCC3)c3cc(-c4c(C)ccnc4OC)ccc32)cc1` [Example 114] returned an IC50 of 500 nM.

`CNS(=O)(=O)c1ccc(CNC(=O)N2CC3(CCCC3)c3cc(-c4cc(F)c(C#N)cc4C)ccc32)cc1` [Example 93]: the midpoint of inhibition, the IC50, lay at 1200 nM.

For `CNS(=O)(=O)c1ccc(CNC(=O)N2CC3(CCCC3)c3cc(-c4cccc(F)c4C)ccc32)cc1` [Example 77], half-maximal inhibition (IC50) was put at 760 nM.

As for `CCS(=O)(=O)c1ccc(CNC(=O)N2CC3(CCCC3)c3cc(-c4cc(CN5CCS(=O)(=O)CC5)ccc4C)ccc32)cc1` [Example 124], the IC50 turned out to be 1400 nM.

`CNS(=O)(=O)c1ccc(CNC(=O)N2CC3(CCCC3)c3cc(-c4cc(OC)c(OC)cc4C(=O)OC)ccc32)cc1` [Example 26]: inhibition was half-maximal at 1400 nM (IC50).

`CNS(=O)(=O)c1ccc(CNC(=O)N2CC3(CCCC3)c3cc(-c4ccccc4C(F)(F)F)ccc32)cc1` [Example 10] had an IC50 of 640 nM.

`CNS(=O)(=O)c1ccc(CNC(=O)N2CC3(CCCC3)c3cc(-c4ccccc4OC(F)(F)F)ccc32)cc1` [Example 73]: 460 nM corresponded to half-maximal inhibition (IC50).

For the compound `CCS(=O)(=O)c1ccc(CNC(=O)N2CC3(CCCC3)c3cc(-c4cnc(N(C)C)nc4C4CC4)ccc32)cc1` [Example 119], half-maximal inhibition (IC50) required 320 nM.

With `CNS(=O)(=O)c1ccc(CNC(=O)N2CC3(CCCC3)c3cc(-c4ccc(CO)cc4C)ccc32)cc1` [Example 42], 1100 nM corresponded to half-maximal inhibition (IC50).

As to `CNS(=O)(=O)c1ccc(CNC(=O)N2CC3(CCCC3)c3cc(-c4c(F)cccc4C(F)(F)F)ccc32)cc1` [Example 75], 140 nM corresponded to half-maximal inhibition (IC50).

The compound `CNS(=O)(=O)c1ccc(CNC(=O)N2CC3(CCCC3)c3cc(-c4cc(S(=O)(=O)N(C)C)ccc4C)ccc32)cc1` [Example 13] yielded an IC50 of 840 nM.

Turning to `CNS(=O)(=O)c1ccc(CNC(=O)N2CC3(CCCC3)c3cc(-c4ccncc4C(F)(F)F)ccc32)cc1` [Example 36], the IC50 amounted to 890 nM.

Compound `COc1ccc(-c2ccc3c(c2)C2(CCCC2)CN3C(=O)NCc2ccc(C#N)cc2)c(C(F)(F)F)c1` [Example 82] displayed an IC50 of 1100 nM.

The compound `CCS(=O)(=O)c1ccc(CNC(=O)N2CC3(CCCC3)c3cc(-c4c(OC)ncnc4C4CC4)ccc32)cc1` [Example 112] displayed an IC50 of 520 nM.

For `CNS(=O)(=O)c1ccc(CNC(=O)N2CC3(CCCC3)c3cc(-c4cc(C)ccc4C)ccc32)cc1` [Example 3], the concentration for half-maximal inhibition (IC50) amounted to 1000 nM.

In turn, `CNS(=O)(=O)c1ccc(CNC(=O)N2CC3(CCCC3)c3cc(Oc4cc(OC)ccc4C)ccc32)cc1` [Example 63] had an IC50 of 1400 nM.

The compound `CNS(=O)(=O)c1ccc(CNC(=O)N2CC3(CCCC3)c3cc(-c4cc(F)ccc4CC#N)ccc32)cc1` [Example 46] had an IC50 of 1300 nM.

`CNS(=O)(=O)c1ccc(CNC(=O)N2CC3(CCCC3)c3cc(-c4ccc(F)cc4C(F)(F)F)ccc32)cc1` [Example 8]: it took 420 nM to reach half-maximal inhibition (IC50).

As for `CNS(=O)(=O)c1ccc(CNC(=O)N2CC3(CCCC3)c3cc(-c4cnc(OC)cc4C)ccc32)cc1` [Example 49], 1900 nM corresponded to half-maximal inhibition (IC50).

The compound `CNS(=O)(=O)c1ccc(CNC(=O)N2CC3(CCCC3)c3cc(Oc4cc(C(F)(F)F)ccc4C)ccc32)cc1` [Example 60] had an IC50 of 250 nM.

As for `CNS(=O)(=O)c1ccc(CNC(=O)N2CC3(CCCC3)c3cc(-c4cccc5[nH]nc(C)c45)ccc32)cc1` [Example 47], the IC50 was determined as 1500 nM.

With `CNS(=O)(=O)c1ccc(CNC(=O)N2CC3(CCCCC3)c3cc(-c4ccc(F)cc4C)ccc32)cc1` [Example 55], the IC50 was determined as 1500 nM.

As for `CCS(=O)(=O)c1ccc(CNC(=O)N2CC3(CCCC3)c3cc(-c4c(OC)nc(C)nc4C4CC4)ccc32)cc1` [Example 122], the IC50 was 1100 nM.

Compound `COc1ccc(-c2ccc3c(c2)C2(CCCC2)CN3C(=O)NCc2ccc(C#N)cc2OC)c(C(F)(F)F)c1` [Example 96] returned an IC50 of 450 nM.

Consider `CNc1ccc(-c2ccc3c(c2)C2(CCCC2)CN3C(=O)NCc2ccc(S(=O)(=O)NC)cc2)c(C)c1` [Example 44], for which half-maximal inhibition (IC50) was put at 1100 nM.

The compound `CNS(=O)(=O)c1ccc(CNC(=O)N2CC3(CCCC3)c3cc(-c4ccccc4C(C)=O)ccc32)cc1` [Example 27] returned an IC50 of 1700 nM.

Regarding `CN(C)c1ncc(-c2ccc3c(c2)C2(CCCC2)CN3C(=O)NCc2ccc(S(C)(=O)=O)cc2)c(C(F)(F)F)n1` [Example 106], the IC50 was determined as 650 nM.

In turn, `CCS(=O)(=O)c1ccc(CNC(=O)N2CC3(CCCC3)c3cc(-c4cnc(N)nc4C(F)(F)F)ccc32)cc1` [Example 111] had an IC50 of 1700 nM.

`CNS(=O)(=O)c1ccc(CNC(=O)N2CC3(CCCC3)c3cc(-c4ccccc4C(=O)OC)ccc32)cc1` [Example 19]: the midpoint of inhibition, the IC50, lay at 1100 nM.

Turning to `CNS(=O)(=O)c1ccc(CNC(=O)N2CC3(CCCC3)c3cc(-c4ccccc4CC#N)ccc32)cc1` [Example 45], the IC50 came to 1200 nM.

Turning to `CCOCc1ccccc1-c1ccc2c(c1)C1(CCCC1)CN2C(=O)NCc1ccc(S(=O)(=O)NC)cc1` [Example 21], the IC50 was 1100 nM.

Compound `CNS(=O)(=O)c1ccc(CNC(=O)N2CC3(CCCC3)c3cc(-c4c(C)cc(CO)cc4C)ccc32)cc1` [Example 89] yielded an IC50 of 990 nM.

In turn, `CCS(=O)(=O)c1ccc(CNC(=O)N2CC(C)(C3CC3)c3cc(-c4c(OC)ncnc4C4CC4)ccc32)cc1` (stereo not shown) [Example 120] registered a half-maximal inhibitory concentration (IC50) of 280 nM.

Turning to `CCS(=O)(=O)c1ccc(CNC(=O)N2CC3(CCCC3)c3cc(-c4ccc(CO)cc4C)ccc32)cc1` [Example 69], the midpoint of inhibition, the IC50, lay at 1100 nM.

Take `CCS(=O)(=O)c1ccc(CNC(=O)N2CC3(CC3)c3cc(-c4c(OC)ncnc4C4CC4)ccc32)cc1` [Example 125]: the 50% inhibitory concentration (IC50) came to 1100 nM.

Consider `COc1ncnc(C(F)(F)F)c1-c1ccc2c(c1)C1(CCCC1)CN2C(=O)NCc1ccc(S(C)(=O)=O)cc1` [Example 110], for which the IC50 was found to be 600 nM.

As for `CCS(=O)(=O)c1ccc(CNC(=O)N2CC3(CCCC3)c3cc(-c4cc(CN5CCC(C#N)CC5)ccc4C)ccc32)cc1` [Example 123], the IC50 worked out at 600 nM.

Values taken from patent US9745267B2, “Compounds as modulators of RORC” (Boehringer Ingelheim International GmbH, priority 2013, dated 2017).
